Reference: PubChem BioAssay (NCI)
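Where inhibition never reached the appropriate level, the endpoint shown equals the highest concentration tested. Otherwise, values were interpolated linearly from a five-concentration, 48-hour dose response in 96-well plates. GI50 = concentration required for 50% inhibition of growth. TGI is the concentration that stops growth completely.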

Key:
Experiment in all cases: NCI anticancer screen, dose series, 48 h
SNB-75 CNS = tested on: SNB-75 CNS
DU-145 prostate = tested on: DU-145 prostate
UO-31 renal = tested on: UO-31 renal
MDA-MB-435 = tested on: MDA-MB-435
SK-MEL-2 melanoma = tested on: SK-MEL-2 melanoma
HCT-116 colon = tested on: HCT-116 colon
HT29 colon = tested on: HT29 colon
HCC-2998 colon = tested on: HCC-2998 colon
RXF 393 renal = tested on: RXF 393 renal
SK-OV-3 ovarian = tested on: SK-OV-3 ovarian
M14 melanoma = tested on: M14 melanoma
MOLT-4 leukemia = tested on: MOLT-4 leukemia
ACHN renal = tested on: ACHN renal
U251 CNS = tested on: U251 CNS
MALME-3M melanoma = tested on: MALME-3M melanoma
T-47D breast = tested on: T-47D breast
SF-268 CNS = tested on: SF-268 CNS
RPMI-8226 leukemia = tested on: RPMI-8226 leukemia
MDA-MB-231 breast = tested on: MDA-MB-231 breast
786-0 renal = tested on: 786-0 renal
OVCAR-5 ovarian = tested on: OVCAR-5 ovarian
SK-MEL-28 melanoma = tested on: SK-MEL-28 melanoma
KM12 colon = tested on: KM12 colon
A549 NSCLC = tested on: A549 NSCLC
MCF7 breast = tested on: MCF7 breast
IGROV1 ovarian = tested on: IGROV1 ovarian
NCI-H522 lung = tested on: NCI-H522 lung
HS 578T breast = tested on: HS 578T breast
OVCAR-3 ovarian = tested on: OVCAR-3 ovarian
SR leukemia = tested on: SR leukemia
NCI-H460 lung = tested on: NCI-H460 lung
SNB-19 CNS = tested on: SNB-19 CNS
SF-295 CNS = tested on: SF-295 CNS
SK-MEL-5 melanoma = tested on: SK-MEL-5 melanoma
EKVX NSCLC = tested on: EKVX NSCLC
CCRF-CEM leukemia = tested on: CCRF-CEM leukemia
PC-3 prostate = tested on: PC-3 prostate
COLO 205 colon = tested on: COLO 205 colon
HOP-92 NSCLC = tested on: HOP-92 NSCLC
HL-60(TB) leukemia = tested on: HL-60(TB) leukemia
OVCAR-8 ovarian = tested on: OVCAR-8 ovarian
SW-620 colon = tested on: SW-620 colon
HCT-15 colon = tested on: HCT-15 colon
UACC-62 melanoma = tested on: UACC-62 melanoma
SF-539 CNS = tested on: SF-539 CNS
HOP-62 NSCLC = tested on: HOP-62 NSCLC
NCI-H226 lung = tested on: NCI-H226 lung
CAKI-1 renal = tested on: CAKI-1 renal
TK-10 renal = tested on: TK-10 renal
UACC-257 melanoma = tested on: UACC-257 melanoma
A498 renal = tested on: A498 renal
NCI-H23 lung = tested on: NCI-H23 lung
K-562 leukemia = tested on: K-562 leukemia
OVCAR-4 ovarian = tested on: OVCAR-4 ovarian
BT-549 breast = tested on: BT-549 breast
NCI/ADR-RES ovarian = tested on: NCI/ADR-RES ovarian
LOX IMVI melanoma = tested on: LOX IMVI melanoma
SN12C renal = tested on: SN12C renal

## c1ccc2[nH]c(-c3ccc(-c4nccc5c4[nH]c4ccccc45)cc3)nc2c1
SNB-75 CNS
  GI50: 1.57 µM
  TGI: 4.07 µM
DU-145 prostate
  GI50: 4.02 µM
  TGI: 16.2 µM
UO-31 renal
  GI50: 1.69 µM
  TGI: 3.27 µM
MDA-MB-435
  GI50: 1.92 µM
  TGI: 4.27 µM
SK-MEL-2 melanoma
  GI50: 1.99 µM
  TGI: 4.34 µM
HCT-116 colon
  GI50: 2.83 µM
  TGI: 10.4 µM
HT29 colon
  GI50: 2.19 µM
  TGI: 4.43 µM
HCC-2998 colon
  GI50: 3.96 µM
  TGI: 15.9 µM
RXF 393 renal
  GI50: 1.93 µM
  TGI: 3.53 µM
SK-OV-3 ovarian
  GI50: 4.37 µM
  TGI: 15.9 µM
M14 melanoma
  GI50: 1.79 µM
  TGI: 3.57 µM
MOLT-4 leukemia
  GI50: 2.32 µM
  TGI: 6.11 µM
ACHN renal
  GI50: 2.05 µM
  TGI: 4.17 µM
U251 CNS
  GI50: 2.74 µM
  TGI: 7.83 µM
MALME-3M melanoma
  GI50: 1.85 µM
  TGI: 3.61 µM
T-47D breast
  GI50: 2.02 µM
  TGI: 6.19 µM
SF-268 CNS
  GI50: 2.89 µM
  TGI: 10.2 µM
RPMI-8226 leukemia
  GI50: 2.48 µM
  TGI: 5.61 µM
MDA-MB-231 breast
  GI50: 2.39 µM
  TGI: 5.83 µM
786-0 renal
  GI50: 2.24 µM
  TGI: 6.3 µM
OVCAR-5 ovarian
  GI50: 2.43 µM
  TGI: 6.47 µM
SK-MEL-28 melanoma
  GI50: 1.96 µM
  TGI: 3.75 µM
KM12 colon
  GI50: 3.59 µM
  TGI: 15.7 µM
A549 NSCLC
  GI50: 4.15 µM
  TGI: 18.6 µM
MCF7 breast
  GI50: 3.56 µM
  TGI: 17.2 µM
IGROV1 ovarian
  GI50: 4.73 µM
  TGI: 22.4 µM
NCI-H522 lung
  GI50: 2.06 µM
  TGI: 5.04 µM
HS 578T breast
  GI50: 2.23 µM
  TGI: 5.93 µM
OVCAR-3 ovarian
  GI50: 1.8 µM
  TGI: 3.64 µM
SR leukemia
  GI50: 2.21 µM
  TGI: 6.36 µM
NCI-H460 lung
  GI50: 3.03 µM
  TGI: 9.79 µM
SNB-19 CNS
  GI50: 4.21 µM
  TGI: 30.4 µM
SF-295 CNS
  GI50: 1.92 µM
  TGI: 4 µM
SK-MEL-5 melanoma
  GI50: 3.69 µM
  TGI: 14.3 µM
EKVX NSCLC
  GI50: 3.45 µM
  TGI: 16.8 µM
CCRF-CEM leukemia
  GI50: 3.12 µM
  TGI: 9.12 µM
PC-3 prostate
  GI50: 8.59 µM
  TGI: 25.1 µM
COLO 205 colon
  GI50: 2.32 µM
  TGI: 6.22 µM
HOP-92 NSCLC
  GI50: 2.06 µM
  TGI: 5.79 µM
HL-60(TB) leukemia
  GI50: 2.03 µM
  TGI: 4.59 µM
OVCAR-8 ovarian
  GI50: 3.3 µM
  TGI: 13.5 µM
SW-620 colon
  GI50: 2.79 µM
  TGI: 8.48 µM
HCT-15 colon
  GI50: 2.22 µM
  TGI: 5.61 µM
UACC-62 melanoma
  GI50: 1.6 µM
  TGI: 3.49 µM
SF-539 CNS
  GI50: 1.89 µM
  TGI: 3.68 µM
HOP-62 NSCLC
  GI50: 2.8 µM
  TGI: 10.8 µM
NCI-H226 lung
  GI50: 2.27 µM
  TGI: 5.56 µM
CAKI-1 renal
  GI50: 2.41 µM
  TGI: 7.11 µM
TK-10 renal
  GI50: 2.07 µM
  TGI: 4.59 µM
UACC-257 melanoma
  GI50: 1.83 µM
  TGI: 3.5 µM
A498 renal
  GI50: 11.4 µM
  TGI: 25.5 µM
NCI-H23 lung
  GI50: 3.47 µM
  TGI: 17.7 µM
K-562 leukemia
  GI50: 2.34 µM
  TGI: 5.47 µM
OVCAR-4 ovarian
  GI50: 2.27 µM
  TGI: 7.75 µM
BT-549 breast
  GI50: 2.12 µM
  TGI: 5.42 µM
NCI/ADR-RES ovarian
  GI50: 3.5 µM
  TGI: 15.2 µM

## COc1cc(CSc2nc3ccc(C)cc3c(=O)n2-c2ccccc2)cc(OC)c1OC
SNB-75 CNS
  GI50: 0.328 µM
  TGI: 2.98 µM
DU-145 prostate
  GI50: 3.59 µM
  TGI: > 100 µM
UO-31 renal
  GI50: 3.67 µM
  TGI: > 100 µM
MDA-MB-435
  GI50: 0.269 µM
  TGI: 0.896 µM
SK-MEL-2 melanoma
  GI50: 3.52 µM
  TGI: > 100 µM
HCT-116 colon
  GI50: 1.03 µM
  TGI: > 100 µM
HT29 colon
  GI50: 0.759 µM
  TGI: > 100 µM
HCC-2998 colon
  GI50: 5.49 µM
  TGI: > 100 µM
LOX IMVI melanoma
  GI50: 4.13 µM
  TGI: > 100 µM
RXF 393 renal
  GI50: 1.1 µM
  TGI: > 25.5 µM
SK-OV-3 ovarian
  GI50: 1.97 µM
  TGI: > 100 µM
M14 melanoma
  GI50: 1.4 µM
  TGI: > 100 µM
MOLT-4 leukemia
  GI50: 3.85 µM
  TGI: > 100 µM
ACHN renal
  GI50: 4.78 µM
  TGI: > 100 µM
U251 CNS
  GI50: 3.77 µM
  TGI: > 100 µM
MALME-3M melanoma
  GI50: 3.73 µM
  TGI: > 100 µM
T-47D breast
  GI50: 1.56 µM
  TGI: > 100 µM
SF-268 CNS
  GI50: 6.37 µM
  TGI: > 100 µM
RPMI-8226 leukemia
  GI50: 3.28 µM
  TGI: > 100 µM
MDA-MB-231 breast
  GI50: 2.92 µM
  TGI: > 100 µM
786-0 renal
  GI50: 6.56 µM
  TGI: > 100 µM
OVCAR-5 ovarian
  GI50: 6.26 µM
  TGI: > 100 µM
SK-MEL-28 melanoma
  GI50: 2.8 µM
  TGI: > 100 µM
KM12 colon
  GI50: 0.99 µM
  TGI: > 100 µM
A549 NSCLC
  GI50: 1.59 µM
  TGI: > 100 µM
MCF7 breast
  GI50: 0.548 µM
  TGI: > 100 µM
IGROV1 ovarian
  GI50: 3.36 µM
  TGI: > 100 µM
NCI-H522 lung
  GI50: 1.44 µM
  TGI: > 25.3 µM
HS 578T breast
  GI50: 2.16 µM
  TGI: > 100 µM
OVCAR-3 ovarian
  GI50: 1.95 µM
  TGI: > 27.3 µM
SR leukemia
  GI50: 0.409 µM
  TGI: > 40.8 µM
NCI-H460 lung
  GI50: 2.3 µM
  TGI: > 100 µM
SNB-19 CNS
  GI50: 13.8 µM
  TGI: > 100 µM
SF-295 CNS
  GI50: 2.41 µM
  TGI: 48 µM
SK-MEL-5 melanoma
  GI50: 0.435 µM
  TGI: 19.9 µM
CCRF-CEM leukemia
  GI50: 2.66 µM
  TGI: > 100 µM
PC-3 prostate
  GI50: 3.25 µM
  TGI: > 100 µM
COLO 205 colon
  GI50: 0.576 µM
  TGI: 3.97 µM
HOP-92 NSCLC
  GI50: 1.03 µM
  TGI: 8.74 µM
HL-60(TB) leukemia
  GI50: 1.72 µM
  TGI: > 100 µM
OVCAR-8 ovarian
  GI50: 4.51 µM
  TGI: > 100 µM
SW-620 colon
  GI50: 0.91 µM
  TGI: > 100 µM
HCT-15 colon
  GI50: 0.577 µM
  TGI: > 100 µM
UACC-62 melanoma
  GI50: 1.93 µM
  TGI: > 100 µM
SF-539 CNS
  GI50: 2.08 µM
  TGI: 9.52 µM
HOP-62 NSCLC
  GI50: 2.48 µM
  TGI: > 100 µM
NCI-H226 lung
  GI50: 3.4 µM
  TGI: > 100 µM
CAKI-1 renal
  GI50: 2.79 µM
  TGI: > 100 µM
TK-10 renal
  GI50: 8.1 µM
  TGI: > 100 µM
UACC-257 melanoma
  GI50: 19.4 µM
  TGI: > 100 µM
A498 renal
  GI50: 1.92 µM
  TGI: 9.15 µM
NCI-H23 lung
  GI50: 6.97 µM
  TGI: > 100 µM
K-562 leukemia
  GI50: 0.534 µM
  TGI: > 100 µM
SN12C renal
  GI50: 4.56 µM
  TGI: > 100 µM
OVCAR-4 ovarian
  GI50: 4.92 µM
  TGI: > 100 µM
BT-549 breast
  GI50: 5.28 µM
  TGI: > 100 µM
NCI/ADR-RES ovarian
  GI50: 1.26 µM
  TGI: > 100 µM
